Reference: ChEMBL document CHEMBL4825705, “Iridoid Constituents of Viburnum brachybotryum” (J Nat Prod, 2021)
pIC50: −log10 of the molar value. Where a name gives a salt, the structure may show the parent alone.

Each compound was assayed on HCT-116 (assay: Cytotoxicity against human HCT-116 cells assessed as cell growth inhibition measured after 48 hrs by MTT assay). Conditions: HCT-116, 48 h.
Assay type: functional, cell-based

SMILES | pIC50
C=C1[C@H]2O[C@@H](OC(=O)/C=C(/C)COC(C)=O)[C@H]3[C@@H]1CC(=O)[C@@]3(CCl)O2 | 5.28
COc1cccc2c1C(=O)c1c(O)c3c(c(O)c1C2=O)C[C@@](O)(C(=O)CO)C[C@@H]3O[C@H]1C[C@H](N)[C@H](O)[C@H](C)O1 [DOXORUBICIN HYDROCHLORIDE] | 6.80
C=C1[C@H]2O[C@@H](OC(=O)/C=C(/C)COC(C)=O)[C@H]3[C@@H]1CC(=O)[C@@]3(CO)O2 | 5.31
